In the OPERA property sets (Mansouri et al. 2018):

SMILES	logP
CCOc1ccc(NC(=O)NNC(C)=O)cc1	0.51
CC(=O)NNC(=O)Nc1cccc([N+](=O)[O-])c1	0.67
CC(=O)NNC(=O)Nc1ccc(F)cc1	0.45
CC(=O)NNC(=O)Nc1cccc(Cl)c1	1.33
COc1ccc(NC(=O)NNC(C)=O)cc1	0.11
CC(=O)NNC(=O)Nc1cccc(C(F)(F)F)c1	1.59
CC(=O)NNC(=O)Nc1cccc(I)c1	1.71
CC(=O)NNC(=O)Nc1ccc(N(C)C)cc1	0.11
CC(=O)NNC(=O)Nc1ccc(C(C)(C)C)cc1	2.08
CC(=O)NNC(=O)Nc1ccccc1	0.25
CC(=O)NNC(=O)Nc1cccc(C)c1	0.75
CC(=O)NNC(=O)Nc1ccc(O)cc1	-0.79
CC(=O)NNC(=O)Nc1ccc(Cl)cc1	1.12
CC(=O)NNC(=O)Nc1cccc(Br)c1	1.48
COc1cccc(NC(=O)NNC(C)=O)c1	0.33
CC(=O)NNC(=O)Nc1ccc([N+](=O)[O-])cc1	0.77
CC(=O)NNC(=O)Nc1ccc(Oc2ccccc2)cc1	2.01
CC(=O)NNC(=O)Nc1ccc(Br)cc1	1.38
CC(=O)NNC(=O)Nc1cccc(F)c1	0.73
CC(=O)NNC(=O)Nc1ccc(C)cc1	0.67
CC(=O)NNC(=O)Nc1ccc(I)cc1	1.65
CC(=O)NNC(=O)Nc1ccc(C#N)cc1	0.38
